Data as given in ChEMBL document CHEMBL1133025, “The utilization of a unified pharmacophore query in the discovery of new antagonists of the adenosine receptor family” (Bioorg Med Chem Lett, 2000).

How the values were obtained:
[1] = molecular target: T1, Adenosine receptor A3 (Homo sapiens) (UniProt P0DMS8); assay: In vitro inhibitory activity against human Adenosine A3 receptor at 10e-5 M
T1 sequence (whole entry): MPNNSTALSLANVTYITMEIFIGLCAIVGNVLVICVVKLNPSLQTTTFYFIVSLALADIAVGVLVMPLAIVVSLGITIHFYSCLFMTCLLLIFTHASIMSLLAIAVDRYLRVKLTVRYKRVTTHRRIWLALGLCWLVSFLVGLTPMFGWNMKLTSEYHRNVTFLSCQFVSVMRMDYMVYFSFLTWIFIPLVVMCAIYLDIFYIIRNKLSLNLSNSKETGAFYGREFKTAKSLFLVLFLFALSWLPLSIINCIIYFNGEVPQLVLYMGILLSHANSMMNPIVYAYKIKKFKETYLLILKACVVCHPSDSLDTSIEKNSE

Adenosine receptor A3 [2] = molecular target: T2, Adenosine receptor A3 (Homo sapiens, UniProt P0DMS8); assay: Inhibition of [35S]GTP-gamma-S, binding stimulated by 20 uM 5''-N-ethyluronamidoadenosine (NECA) in membranes of HEK293 cells expressing human Adenosine A3 receptor; format: functional, cell membranes
T2 sequence (P0DMS8 whole entry): T1 sequence (whole entry)

Adenosine receptor A3 [3] = molecular target: T2, Adenosine receptor A3; assay: In vitro binding affinity against human Adenosine A3 receptor
Adenosine receptor A3 [4] = molecular target: T2, Adenosine receptor A3; assay: Inhibition of [35S]GTP-gamma-S, binding stimulated by 5 uM 5''-N-ethyluronamidoadenosine (NECA) in membranes of HEK293 cells expressing human Adenosine A3 receptor; format: functional, cell membranes

Structure (SMILES) | inhibition [1] [%] | Ki (Adenosine receptor A3 [3]) [nM] | further results
COc1ccc(N(CC(=O)Nc2cccc(Cl)c2C)S(=O)(=O)c2ccccc2)cc1 | 65 |  | 
COc1ccc(-c2csc(NC3OC(=O)c4c3ccc(OC)c4OC)n2)cc1 (stereo unspecified) |  | 1300 | IC50 (Adenosine receptor A3 [2]): 255 nM
CCOC(=O)CNC(c1ccccc1)c1cc(Br)ccc1NC(=O)c1ccccc1 (stereo unspecified) |  | 3100 | IC50 (Adenosine receptor A3 [4]): 407 nM
O=C(NCCc1c[nH]c2ccc(OCc3ccccc3)cc12)c1ccco1 | 70 |  | 
CC(NC(=O)OCc1ccccc1)C(=O)Oc1cc(O)c2c(=O)cc(-c3ccccc3)oc2c1 (stereo unspecified) | 60 |  | 

Now from value to compound, other results behind:

inhibition [1] [%] | Ki (Adenosine receptor A3 [3]) [nM] | Structure (SMILES) | further results
65 |  | Cc1ccc(N(CC(=O)N/N=C/c2ccccc2O)S(=O)(=O)c2ccccc2)cc1 | 
 | 600 | CCOC(=O)c1c(NC(=O)Cc2ccccc2)sc2c1CCN(C(=O)OCC)C2 | IC50 (Adenosine receptor A3 [2]): 186 nM
60 |  | CCSc1nnc2c(n1)OC(c1ccc(-c3ccc(Cl)cc3)o1)Nc1ccccc1-2 (stereo unspecified) | 
